# Several values for one entry are separate records, joined by “and”; a condition that tells them apart may be missing. Equal entries are not always repeated.
# Experiments:
# Format in all cases: cell-based
# [1] = tested on: MDA-MB-468 human breast cancer cells; experiment: Microarray gene expression analysis (Affymetrix, AffyLimma); conditions: 6 h
# Experimental: MDA-MB-468 cells were treated with 5 μg/mL (15 μM) or 20 μg/mL of CA for 6 or 24 h. RNA was isolated using methods known in the art. Total cellular RNA was extracted using Trizol (Invitrogen; Carlsbad, Calif.) according to the manufacturer's protocol with minor modifications, and then purified twice with Qiagen's RNeasy column. Total RNA (8 μg) was reverse transcribed with T7-(dT)24 primer and Super Script III reverse transcriptase (Invitrogen).
# Microarray analysis was performed using methods known in the art. Labeled cDNA was generated from MDA-MB-468 cells and hybridized to Affymetrix […] genome arrays at Columbia University following standard Affymetrix protocols. Analysis was performed using the AffyLimmaGUI package in the open-source Bioconductor suite.
# Affy-Limma analysis was used to determine the effects of carnosic acid, at a dose of 20 μg/ml and at 6 h on the gene expression pattern in MDA-MB-468 breast cancer cells. Assays were performed as described in the Materials and methods section. Fold change (log) is the mean of the ratio of hybridization signals in carnosic acid treated vs. control treated cells {40 highest M (log-fold) values; p<0.05}.
# For gene expression analysis, the samples were analyzed by AffyLima analysis. The statistical significance of differential expression was calculated using the empirical Bayesian LIMMA ([…]) method of Smyth et al. (Smyth, G. K. et al., “Use of within-array replicate spots for assessing differential expression in microarray experiments.” Bioinformatics 2005; 21:2067-75, incorporated herein by reference): B=log e(odds of differential expression), the Bayesian natural (base e) log of the odds that the genes are differentially expressed.
# [2] = tested on: MDA-MB-453 human breast cancer cells; experiment: Cell cycle analysis by DNA flow cytometry; conditions: 48 h
# Experimental: For cell cycle analysis the cells were plated (3×105) onto 6 cm dishes and allowed to attach for 24 h. Then the medium was replaced with DMEM containing 10% FBS and DMSO or agents. After 48 h, the cells were analyzed by DNA flow cytometry.
# To examine the effects of rosemary on the cell cycle, MDA-MB-453 human breast cancer cells were treated with rosemary extract enriched for CA (50%) at 40 or 80 μg/ml and purified CA at 10, 20 or 40 μg/ml for 48 h. The cells were then stained with propidium iodide and the stained cells were analyzed by DNA flow cytometry (Table 1).
# MDA-MB-453 cells were treated with 0, 10, 20, or 40 μg/ml of carnosic acid or 40, 80 μg/ml of rosemary extract (carnosic acid: 50%), and analyzed at 48 hr by DNA flow cytometry. The values indicate the % of cells in the cell cycle phases.
# MCF7/Her2-18 cells = experiment: MTT cell proliferation assay on MCF7/Her2-18 cells; conditions: Homo sapiens; MCF7/Her2-18 (45-fold increase Her2); read-out: IC50 growth inhibition
# Experimental: MDA-MB-453 (ER negative, Her2 overexpressing), MDA-MB-468 (triple negative) and MCF7 (ER positive, Her2 low) cells, HT29 (p53 positive human colon cancer cells) (ATCC, Manassas, Va.) were grown in Dulbecco's Modified Eagle's medium (DMEM) (Gibco BRL Life Technologies, Inc., Rockville, Md.) containing 10% (v/v) fetal bovine serum (FBS) (Gibco BRL) at 37° C., 5% C02. SUM 149 (Her2 overexpressing, ER low) (the gift of Dr. R. Parsons, Columbia University Medical Center, New York, N.Y.) were cultivated in Ham's F-12 medium with 10% FBS. MCF7 and MCF7/Her2-18 (MCF7 cells transfected with a full length Her2 cDNA coding region, 45-fold increase Her2) were the kind gift of Dr. Dennis Slamon (Los Angeles, Calif.). These cells were maintained in RPMI supplemented with 10% FBS plus glutamine (1%) and PSF (1%) (Gibco, Rockville Md.).
# MTT assay: the MTT {3-(4,5-dimethyl-2-thiazol)-2,5-diphenyl-2H tetrazolilum bromide} (Dojindo; Tokyo, Japan) cell proliferation assay system (Roche Diagnostic, Mannheim, Germany) was used to determine the sensitivity of the various cell lines to agents. Cells were seeded at 1×10^4 cells/well in 96-well plates and allowed to attach for 24 h. […] The cells were treated for 96 or 120 h, after which they were incubated with MTT reagents and the absorbance read at 650 and 575 nm. For cell growth assays, the data are expressed as mean+/−standard deviation. […]
smiles,measurement,setting,value
CC(C)c1cc2c(c(O)c1O)[C@@]1(C(=O)O)CCCC(C)(C)[C@@H]1CC2 [carnosic acid],"number of genes altered, p<0.05",[1]; 20 μg/ml,124 genes
same,ratio of genes activated to suppressed,[1]; 20 μg/ml,4.6
same,number of genes repressed,[1]; higher dose (20 μg/ml),22 genes
same,number of genes whose expression is activated,[1]; higher dose (20 μg/ml),102 genes
same,number of genes whose expression is activated,"[1]; low dose (5 μg/ml), glutathione metabolism and transport genes",3 genes
same,M (log-fold) GDF15/LOC100292463 expression,"[1]; probe 22577_x_at, 20 μg/ml",3.2033 log-fold
same,M (log-fold) TXNRD1 expression,"[1]; probe 201266_at, 20 μg/ml",1.6785 log-fold
same,M (log-fold) ELF3 expression,"[1]; probe 201510_at, 20 μg/ml",−1.3391 log-fold
same,M (log-fold) HEXIM1 expression,"[1]; probe 202814_s_at, 20 μg/ml",−1.2946 log-fold
same,M (log-fold) GCLC expression,"[1]; probe 202922_at, 20 μg/ml",2.5514 log-fold
same,M (log-fold) GCLC expression,"[1]; probe 202923_s_at, 20 μg/ml",2.3524 log-fold
same,M (log-fold) HMOX1 expression,"[1]; probe 203665_at, 20 μg/ml",6.2079 log-fold
same,M (log-fold) TTLL4 expression,"[1]; probe 203702_s_at, 20 μg/ml",1.4497 log-fold
same,M (log-fold) GCLM expression,"[1]; probe 203925_at, 20 μg/ml",1.6079 log-fold
same,M (log-fold) CDKN2C expression,"[1]; probe 204159_at, 20 μg/ml",−1.5843 log-fold
same,M (log-fold) PMAIP1 expression,"[1]; probe 204286_s_at, 20 μg/ml",1.5443 log-fold
same,M (log-fold) KIF21B expression,"[1]; probe 204411 at, 20 μg/ml",2.0237 log-fold
same,M (log-fold) CBR3 expression,"[1]; probe 205379_at, 20 μg/ml",1.4702 log-fold
same,M (log-fold) CTH expression,"[1]; probe 206085_s_at, 20 μg/ml",2.3083 log-fold
same,M (log-fold) ABCC2 expression,"[1]; probe 206155_at, 20 μg/ml",2.2558 log-fold
same,M (log-fold) CYP4F3 expression,"[1]; probe 206515 _at, 20 μg/ml",2.4762 log-fold
same,M (log-fold) AKR1B10 expression,"[1]; probe 206561_s_at, 20 μg/ml",2.3416 log-fold
same,M (log-fold) SLC7A11 expression,"[1]; probe 207528_s_at, 20 μg/ml",2.3041 log-fold
same,M (log-fold) ID3 expression,"[1]; probe 207826_s_at, 20 μg/ml",−1.9788 log-fold
same,M (log-fold) DDIT3/NR1H3 expression,"[1]; probe 209383_at, 20 μg/ml",1.8207 log-fold
same,M (log-fold) GRB10 expression,"[1]; probe 209409_at, 20 μg/ml",1.6777 log-fold
same,M (log-fold) RIT1 expression,"[1]; probe 209882_at, 20 μg/ml",1.3792 log-fold
same,M (log-fold) SLC7A11 expression,"[1]; probe 209921_at, 20 μg/ml",3.7330 log-fold
same,M (log-fold) MAP2 expression,"[1]; probe 210015_s_at, 20 μg/ml",1.9566 log-fold
same,M (log-fold) AKR1C2 expression,"[1]; probe 211653_x_at, 20 μg/ml",4.1458 log-fold
same,M (log-fold) ZC3HAV1 expression,"[1]; probe 213051_at, 20 μg/ml",−1.5819 log-fold
same,M (log-fold) AKR1C1 expression,"[1]; probe 216594_x_at, 20 μg/ml",3.8405 log-fold
same,M (log-fold) CTH expression,"[1]; probe 217127_at, 20 μg/ml",2.3586 log-fold
same,M (log-fold) SLC7A11 expression,"[1]; probe 217678_at, 20 μg/ml",3.9492 log-fold
same,M (log-fold) NAMPT expression,"[1]; probe 217738_at, 20 μg/ml",1.4857 log-fold
same,M (log-fold) NAMPT expression,"[1]; probe 217739_s_at, 20 μg/ml",1.7329 log-fold
same,M (log-fold) PHLDA1 expression,"[1]; probe 217996_at, 20 μg/ml",1.9833 log-fold
same,M (log-fold) SLC38A2 expression,"[1]; probe 218041_x_at, 20 μg/ml",1.2613 log-fold
same,M (log-fold) TRIB3 expression,"[1]; probe 218145_at, 20 μg/ml",1.6338 log-fold
same,M (log-fold) KCTD15 expression,"[1]; probe 218553_s_at, 20 μg/ml",1.3491 log-fold
same,M (log-fold) OSGIN1 expression,"[1]; probe 219475_at, 20 μg/ml",1.9508 log-fold
same,M (log-fold) SLC38A2 expression,"[1]; probe 220924_s_at, 20 μg/ml",1.2541 log-fold
same,M (log-fold) RIPK4 expression,"[1]; probe 221215_s_at, 20 μg/ml",−1.2540 log-fold
same,M (log-fold) C9orf91 expression,"[1]; probe 221865_at, 20 μg/ml",1.3335 log-fold
same,M (log-fold) ALDH1A3 expression,"[1]; probe 222168_at, 20 μg/ml",−1.4627 log-fold
same,% of Cells G1,[2]; 10 ug/ml,51.2%
same,% of Cells G2,[2]; 10 ug/ml,11.8%
same,% of Cells Sub G1,[2]; 10 ug/ml,1.5%
same,% of Cells S,[2]; 10 ug/ul,31.2%
same,% of Cells G1,[2]; 20 ug/ml,71.9%
same,% of Cells G2,[2]; 20 ug/ml,9.1%
same,% of Cells Sub G1,[2]; 20 ug/ml,1.7%
same,% of Cells S,[2]; 20 ug/ul,15.3%
same,% of Cells G1,[2]; 40 ug/ml,50.8%
same,% of Cells G2,[2]; 40 ug/ml,13.9%
same,% of Cells Sub G1,[2]; 40 ug/ml,1.6%
same,% of Cells S,[2]; 40 ug/ul,28.9%
same,IC50,MCF7/Her2-18 cells,9 µg/mL and 27 µM
